Results taken from article PMC6829886, “Inhibition of Non-Small Cell Lung Cancer Cells by Oxy210, an Oxysterol-Derivative that Antagonizes TGFβ and Hedgehog Signaling” (Cells, 2019).

Tests used:
A549 cells = assay: TGFβ-induced drug resistance (carboplatin) assay, cell counting; type: cell-based, human; conditions: TGFβ1 ± Oxy210 (5 μM) 3 days, then 20 μM CP 4 days
Description: A549 and H2030 cells cultured in RPMI 1640 containing 5% FBS in 12 well-plates at 20% confluence were treated with Oxy210 for 6 days and then trypsinized, spun down and resuspended in fresh medium. For the Carboplatin (CP) and Oxy210 co-treatment experiments, A549 cells cultured in RPMI 1640 containing 2% FBS in 12 well-plates at 20% confluence were treated with CP at different concentrations in the presence or absence of Oxy210 for 6 days. For the TGFβ-induced drug resistance assay, A549 cells cultured in RPMI 1640 containing 2% FBS in 12 well-plates at 10% confluence were pre-treated with TGFβ1 alone or together with Oxy210 for 3 days, and then treated with 20 μM CP for 4 days. An aliquot of cell suspension was applied to a hemocytometer and the cells were then counted under a light microscope.
Figure 10 Effect of Oxy210 on TGFβ-induced resistance to carboplatin. A549 cells were treated with the agents as indicated (in front of --) in RPMI 1640 containing 2% FBS for 3 days, and then treated with the agents as indicated (after --) for 4 days. The cells were then trypsinized and counted. Data from a representative experiment are reported as the mean of triplicate determinations ± SD (## p < 0.01 vs. Control--Control; ++ p < 0.01 vs. Control--CP; ** p < 0.01 vs. TGFβ--CP).

Human TGFBR1 = molecular target: T1, Human TGFBR1 (Homo sapiens, UniProt P36897); assay: TGFβ receptor I kinase inhibition assay (Eurofins); type: biochemical; conditions: vs. positive controls Cdk1/2 Inhibitor III and PKR Inhibitor
T1 construct: Human TGFBR1 (amino acid 200 to end); purchased Eurofins
T1 sequence (P36897 200-503 limits assumed): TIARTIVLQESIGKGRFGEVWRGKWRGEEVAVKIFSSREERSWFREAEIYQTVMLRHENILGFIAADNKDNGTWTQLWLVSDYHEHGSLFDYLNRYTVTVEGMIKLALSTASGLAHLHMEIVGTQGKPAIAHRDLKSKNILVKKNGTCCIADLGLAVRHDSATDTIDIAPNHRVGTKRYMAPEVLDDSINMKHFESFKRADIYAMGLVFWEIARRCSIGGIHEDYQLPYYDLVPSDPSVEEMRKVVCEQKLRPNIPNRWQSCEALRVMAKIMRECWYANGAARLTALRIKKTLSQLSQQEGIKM
Description: Effect of Oxy210 on inhibition of TGFβ receptors I and II kinase activity was assessed by Eurofins (Celle-L’Evescault, France). TGFBR1 (h): Human TGFBR1 (amino acid 200 to end) was incubated with 8 mM MOPS pH 7.0, 0.2 mM EDTA, 1 mM MnCl2, 2 mg/mL casein, 10 mM Magnesium acetate and […] (specific activity and concentration as required). The reaction was initiated by the addition of the Mg/ATP mix. After incubation for 40 min at room temperature, the reaction was stopped by the addition of phosphoric acid to a concentration of 0.5%. 10 μL of the reaction was then spotted onto a P30 filtermat and washed four times for 4 min in 0.425% phosphoric acid and once in methanol prior to drying and scintillation counting. TGFBR2 (h): Human TGFBR2 (amino acid 188-end) was incubated with 20 mM Tris/HCl pH 8.5, 0.2 mM EDTA, 0.33 mg/mL MBP, 10 mM Magnesium acetate and [9-33P-ATP] (specific activity and concentration as required). The reaction was initiated by the addition of the Mg/ATP mix. After incubation for 120 min at room temperature, the reaction was stopped by the addition of phosphoric acid to a concentration of 0.5%. […]
Figure 11 Inhibition of TGFβ-induced Smad2/3 phosphorylation and transcriptional activity. […] Luciferase activity was measured and normalized to the Renilla luciferase activity. […]

TβRI = assay: Smad responsive luciferase reporter (CAGA12-Luc) in R1BL17 cells transfected with TGFβRI (WT or TD mutant); type: cell-based, mink; conditions: 20 h

C[C@]12CC[C@H]3[C@@H](CC=C4C[C@@H](O)CC[C@@]43C)[C@@H]1CC[C@@H]2[C@](C)(O)CCc1cccnc1 [Oxy210, (3S,8S,9S,10R,13S,14S,17S)-17-((R)-2-hydroxy-4-(pyridin-3-yl)butan-2-yl)-10,13-dimethyl-2,3,4,7,8,9,10,11,12,13,14,15,16,17-tetradecahydro-1H-cyclopenta[a]phenanthren-3-ol]
sensitivity to CP after TGFβ1 pre-treatment (TGFβ-induced CP resistance) (A549 cells): fully restored CP drug sensitivity
inhibitory activity on TβRI in functional kinase assay (Human TGFBR1): did not display significant inhibitory activity
activity of Smad responsive reporter stimulated by TGFβ-activated RI or ligand independent RI_TD (TβRI): significantly inhibited
